# Results as given in US9499538B2, “Estrogen receptor modulators and uses thereof” (Seragon Pharmaceuticals, Inc., priority 2012, dated 2016).
# Tests used:
# ER-α in MCF-7 cells = molecular target: T1, ER-α in MCF-7 cells (Homo sapiens, UniProt P03372); assay: Breast Cancer Cell ER-α In Cell Western Assay (SP1); format: cell-based; settings: 4 or 24 hr post compound addition; for Emax: MCF7, SP1 antibody, read-out: ER-α In Cell Western Assay (SP1) Max Response; for DC50: SP1 antibody, read-out: ER-α In Cell Western Assay (SP1) IC50
# T1 construct: endogenous in cells; host or cells: MCF-7
# T1 sequence (P03372 1-595): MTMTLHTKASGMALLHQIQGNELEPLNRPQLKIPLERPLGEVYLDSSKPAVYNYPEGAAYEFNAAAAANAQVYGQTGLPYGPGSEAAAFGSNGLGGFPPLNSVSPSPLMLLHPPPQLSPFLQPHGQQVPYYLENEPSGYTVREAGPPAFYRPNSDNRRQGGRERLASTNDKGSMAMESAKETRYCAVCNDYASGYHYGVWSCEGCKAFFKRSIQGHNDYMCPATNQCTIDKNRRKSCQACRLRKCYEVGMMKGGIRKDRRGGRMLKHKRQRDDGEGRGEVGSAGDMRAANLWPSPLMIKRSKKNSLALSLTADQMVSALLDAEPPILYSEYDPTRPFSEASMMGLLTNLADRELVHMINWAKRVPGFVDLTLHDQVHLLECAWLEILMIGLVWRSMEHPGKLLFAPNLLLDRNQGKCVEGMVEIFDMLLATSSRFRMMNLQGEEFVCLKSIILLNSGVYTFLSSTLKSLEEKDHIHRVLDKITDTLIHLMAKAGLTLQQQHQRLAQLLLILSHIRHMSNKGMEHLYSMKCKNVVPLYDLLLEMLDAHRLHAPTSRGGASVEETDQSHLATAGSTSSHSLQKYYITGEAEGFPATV
# Protocol: MCF-7 cells were adjusted to a concentration of 200,000 cells per mL in RPMI containing 10% charcoal-stripped FBS and 20 mM HEPES. 16 microliters of the cell suspension (3200 cells) was added to each well of a poly-D-lysine 384 well plate, and the cells were incubated overnight to allow the cells to adhere. The following day an eleven point, serial semilog dilution of each compound was added to the cells in 16 μL at a final concentration ranging from 0.3-0.000003 μM. At 4 or 24 hr post compound addition, the cells were fixed (10% formalin in PBS) for 20 minutes. Cells were permeablized in PBS 0.1% Triton and blocked with LICOR blocking buffer (50 μl/well, 90′). The wells were then incubated overnight at 4° C. with SP1 rabbit monoclonal Ab (Thermo Scientific) diluted 1:1000 in LICOR blocking buffer/0.1% Tween-20. Wells which were treated with blocking buffer with Tween but no antibody were used as a background control. Wells were washed with 0.1% Tween-20/PBS and then incubated in goat anti-rabbit IRDye™ 800CW (LICOR Inc.; 1:10000) and DRAQ5 DNA dye (1:2000 for 2 mM stock) diluted in LICOR blocking buffer containing 0.1% Tween-20 and 0.01% SDS for 60 minutes. Cells were washed (50 μl/well, 5′ each) in 0.1% Tween-20/PBS. Plates were scanned on a LICOR Odyssey infrared imaging system. Integrated intensities in the 800 nm channel and 700 nm channel were measured to determine levels of ER and DNA respectively. Percent ER levels were determined as follows: (Integrated intensity 800 nm sample/integrated intensity 700 nm sample)/(Integrated intensity 800 nm untreated cells/integrated intensity 700 nm untreated cells)×100=% ER levels. […]
# MCF-7 cells = assay: Breast Cancer Cell Viability Assays (MCF-7, CellTiter-Glo); format: cell-based; settings: 5 days' compound exposure; for IC50: Homo sapiens, MCF7, 120 h
# Protocol: MCF-7 cells were adjusted to a concentration of 20,000 cells per mL in RPMI containing 10% FBS and 20 mM HEPES. 16 microliters of the cell suspension (320 cells) was added to each well of a 384 well plate, and the cells were incubated overnight to allow the cells to adhere. The following day an eleven point, serial semilog dilution of each compound was added to the cells in 16 μL at a final concentration ranging from 0.3-0.000003 μM. After 5 days' compound exposure, 16 μL of CellTiter-GLo (Promega, Madison Wis.) was added to the cells, and the relative luminescence units (RLUs) of each well were determined. CellTiter-Glo added to 32 μL of medium without cells was used to obtain a background value. The Percent viability of each sample was determined as follows: (RLU sample−RLU background/RLU untreated cells−RLU background)×100=% viability. […]
SMILES,Emax (ER-α in MCF-7 cells),DC50 (ER-α in MCF-7 cells),MCF7 Viability Assay Max Response (MCF-7 cells),IC50 (MCF-7 cells)
"N#Cc1c(/C(=C(/c2ccccc2)C2CCC2)c2ccc(/C=C/C(=O)O)cc2)ccc2[nH]ncc12 [Example 1, (E)-3-(4-((E)-1-(4-Cyano-1H-indazol-5-yl)-2-cyclobutyl-2-phenylvinyl)phenyl)acrylic acid]",≥ 40%,≤ 100 nM,++ (++ = a single % value ≧ 40%),≤ 100 nM
"O=C(O)/C=C/c1ccc(/C(=C(\c2ccccc2)C2CCC2)c2ccc3[nH]ncc3c2Cl)cc1 [Example 2, (E)-3-(4-((E)-1-(4-Chloro-1H-indazol-5-yl)-2-cyclobutyl-2-phenylvinyl)phenyl)acrylic acid]",≥ 40%,≤ 100 nM,++ (++ = a single % value ≧ 40%),≤ 100 nM
"CC/C(=C(/c1ccc(/C=C/C(=O)O)cc1)c1ccc2[nH]ncc2c1C#N)c1ccccc1 [Example 3, (E)-3-(4-((E)-1-(4-Cyano-1H-indazol-5-yl)-2-phenylbut-1-en-1-yl)phenyl)acrylic acid]",≥ 40%,≤ 100 nM,++ (++ = a single % value ≧ 40%),≤ 100 nM
"O=C(O)/C=C/c1ccc(/C(=C(\c2ccccc2)C2CCC2)c2ccc3c(c2)CNC3=O)cc1 [Example 4, (E)-3-(4-((E)-2-Cyclobutyl-1-(1-oxoisoindolin-5-yl)-2-phenylvinyl)phenyl)acrylic acid]",≥ 40%,≤ 100 nM,++ (++ = a single % value ≧ 40%),≤ 100 nM
"O=C(O)/C=C/c1ccc(/C(=C(\c2ccc(F)cc2Cl)C2CCC2)c2ccc3c(c2)CNC3=O)cc1 [Example 5, (E)-3-(4-((E)-2-(2-Chloro-4-fluorophenyl)-2-cyclobutyl-1-(1-oxoisoindolin-5-yl)vinyl)phenyl)acrylic acid]",≥ 40%,≤ 100 nM,++ (++ = a single % value ≧ 40%),≤ 100 nM
"CC/C(=C(/c1ccc(/C=C/C(=O)O)cc1)c1ccc2[nH]ncc2c1C#N)c1ccc(F)cc1Cl [Example 6, (E)-3-(4-((E)-2-(2-Chloro-4-fluorophenyl)-1-(4-cyano-1H-indazol-5-yl)but-1-en-1-yl)phenyl)acrylic acid]",≥ 40%,≤ 100 nM,++ (++ = a single % value ≧ 40%),≤ 100 nM
"CC/C(=C(/c1ccc(/C=C/C(=O)O)cc1)c1ccc2[nH]nc(F)c2c1F)c1ccccc1 [Example 7, (E)-3-(4-((E)-1-(3,4-Difluoro-1H-indazol-5-yl)-2-phenylbut-1-en-1-yl)phenyl)acrylic acid]",≥ 40%,≤ 100 nM,++ (++ = a single % value ≧ 40%),≤ 100 nM
"CC/C(=C(/c1ccc(/C=C/C(=O)O)cc1)c1ccc2[nH]ncc2c1OC)c1ccccc1 [Example 8, (E)-3-(4-((E)-1-(4-Methoxy-1H-indazol-5-yl)-2-phenylbut-1-en-1-yl)phenyl)acrylic acid]",≥ 40%,≤ 100 nM,++ (++ = a single % value ≧ 40%),≤ 100 nM
"COc1c(/C(=C(/c2ccccc2)C2CCC2)c2ccc(/C=C/C(=O)O)cc2)ccc2[nH]ncc12 [Example 9, (E)-3-(4-((E)-2-Cyclobutyl-1-(4-methoxy-1H-indazol-5-yl)-2-phenylvinyl)phenyl)acrylic acid]",≥ 40%,≤ 100 nM,++ (++ = a single % value ≧ 40%),≤ 100 nM
"N#Cc1c(/C(=C(/c2ccccc2F)C2CCC2)c2ccc(/C=C/C(=O)O)cc2)ccc2[nH]ncc12 [Example 10, (E)-3-(4-((E)-1-(4-Cyano-1H-indazol-5-yl)-2-cyclobutyl-2-(2-fluorophenyl)vinyl)phenyl)acrylic acid]",≥ 40%,≤ 100 nM,++ (++ = a single % value ≧ 40%),≤ 100 nM
"Cc1ccccc1/C(=C(\c1ccc(/C=C/C(=O)O)cc1)c1ccc2[nH]ncc2c1C#N)C1CCC1 [Example 11, (E)-3-(4-((E)-1-(4-Cyano-1H-indazol-5-yl)-2-cyclobutyl-2-(o-tolyl)vinyl)phenyl)acrylic acid]",≥ 40%,≤ 100 nM,++ (++ = a single % value ≧ 40%),≤ 100 nM
"N#Cc1c(/C(=C(/c2ccccc2)C2CCC2)c2ccc(/C=C/C(=O)O)cc2)ccc2[nH]nc(F)c12 [Example 12, (E)-3-(4-((E)-1-(4-Cyano-3-fluoro-1H-indazol-5-yl)-2-cyclobutyl-2-phenylvinyl)phenyl)acrylic acid]",≥ 40%,≤ 100 nM,++ (++ = a single % value ≧ 40%),≤ 100 nM
"N#Cc1c(/C(=C(/c2ccccc2)C2CC2)c2ccc(/C=C/C(=O)O)cc2)ccc2[nH]ncc12 [Example 13, (E)-3-(4-((E)-1-(4-Cyano-1H-indazol-5-yl)-2-cyclopropyl-2-phenylvinyl)phenyl)acrylic acid]",≥ 40%,≤ 100 nM,++ (++ = a single % value ≧ 40%),≤ 100 nM
"N#Cc1c(/C(=C(/c2ccccc2)C2CC2)c2ccc(/C=C/C(=O)O)cc2)ccc2[nH]nc(F)c12 [Example 14, (E)-3-(4-((E)-1-(4-Cyano-3-fluoro-1H-indazol-5-yl)-2-cyclopropyl-2-phenylvinyl)phenyl)acrylic acid]",≥ 40%,≤ 100 nM,++ (++ = a single % value ≧ 40%),≤ 100 nM
"CC(C)/C(=C(/c1ccc(/C=C/C(=O)O)cc1)c1ccc2[nH]nc(F)c2c1)c1ccccc1 [Example 15, (E)-3-(4-((E)-1-(3-Fluoro-1H-indazol-5-yl)-3-methyl-2-phenylbut-1-en-1-yl)phenyl)acrylic acid]",≥ 40%,≤ 100 nM,++ (++ = a single % value ≧ 40%),≤ 100 nM
"O=C(O)/C=C/c1ccc(/C(=C(\c2ccccc2)C2CCC2)c2ccc3[nH]nnc3c2)cc1 [Example 17, (E)-3-(4-((E)-1-(1H-Benzo[d][1,2,3]triazol-5-yl)-2-cyclobutyl-2-phenylvinyl)phenyl)acrylic acid]",≥ 40%,≤ 100 nM,++ (++ = a single % value ≧ 40%),≤ 100 nM
"O=C(O)/C=C/c1ccc(/C(=C(\c2ccccc2)C2CCC2)c2cccc3[nH]ncc23)cc1 [Example 18, (E)-3-(4-((E)-2-Cyclobutyl-1-(1H-indazol-4-yl)-2-phenylvinyl)phenyl)acrylic acid]",≥ 40%,≤ 100 nM,++ (++ = a single % value ≧ 40%),≤ 100 nM
"CC/C(=C(/c1ccc(/C=C/C(=O)O)cc1)c1ccc2scnc2c1C#N)c1ccccc1 [Example 19, (E)-3-(4-((E)-1-(4-Cyanobenzo[d]thiazol-5-yl)-2-phenylbut-1-en-1-yl)phenyl)acrylic acid]",≥ 40%,≤ 100 nM,++ (++ = a single % value ≧ 40%),≤ 100 nM
